The record followed here is US7928135B2, “Benzene, pyridine, and pyridazine derivatives” (Serenex, Inc., priority 2005, dated 2011).

Structures are written as SMILES. Where only a bound is given, the exact number is not on record here.

The subject of this test is PC-3 cell proliferation. Nature of the test: Cell proliferation assay (WST-1), PC-3. Format: cell-based. The settings on record: Homo sapiens; PC-3 cells, WST-1 readout; read-out: inhibitory activity against PC-3 cell proliferation (IC50 range). The protocol: A panel of cancer cell lines was obtained from the DCTP Tumor Repository, National Cancer Institute (Frederick, Md.) or ATCC (Rockville, Md.). Cell cultures were maintained in Hyclone RPMI 1640 medium (Logan, Utah) supplemented with 10% fetal bovine serum and 20 mM HEPES buffer, final pH 7.2, at 37° C. with a 5% CO2 atmosphere. Cultures were maintained at sub-confluent densities. Human umbilical vein endothelial cells (HUVEC) were purchased from Clonetics, a division of Cambrex (Walkersville, Md.). Cultures were established from cryopreserved stocks using Clonetics EGM-2 medium supplemented with 20 mM HEPES, final pH 7.2, at 37° C. with a 5% CO2 atmosphere.
For proliferation assays, cells were seeded with the appropriate medium into 96 well plates at 1,000-2,500 cells per well, depending on the cell line, and were incubated overnight. The following day, test compound, DMSO solution (negative control), or Actinomycin D (positive control) was added to the appropriate wells as 10× concentrated stocks prepared in phosphate buffered saline. The cell plates were then incubated for an additional 2-5 days, depending on the cell line, to allow proliferation to occur. To measure cell density, 50 μL of WST-1 solution (Roche Applied Science, Ind.) diluted 1:5 in phosphate buffered saline was added to each well, and the cells incubated for an additional 1-5 hrs., again depending on the cell line. Optical density was determined for each well at […] using a Tecan GeniosPro plate reader (RTP, NC). The percentage of cell growth was determined by comparing the cell growth in the presence of test compounds to the cells treated with DMSO vehicle (control, 100% growth) and cells treated with Actinomycin D (10 μM, 0% growth). […]
In general terms: Formazan colour is commonly taken as a measure of viable cells.
Consider `Cc1cc(Nc2cc(-n3c(C)cc4c3CC(C)(C)CC4=O)ccc2C(N)=O)no1` [Compound 84, 2-[(5-methylisoxazol-3-yl)amino]-4-(2,6,6-trimethyl-4-oxo-4,5,6,7-tetrahydro-1H-indol-1-yl)benzamide], for which the IC50 is 500 to 5000 nM.
Turning to `Cc1nn(-c2ccc(C(N)=O)c(NCCS(C)(=O)=O)c2)c2c1C(=O)CC(C)(C)C2` [Compound 113, 2-{[2-(methylsulfonyl)ethyl]amino}-4-(3,6,6-trimethyl-4-oxo-4,5,6,7-tetrahydro-1H-indazol-1-yl)benzamide], the IC50 is less than 500 nM.
For `Cc1cn(-c2ccc(C(N)=O)c(Nc3ccncc3)c2)c2c1C(=O)CC(C)(C)C2` [Compound 97, 2-(pyridin-4-ylamino)-4-(3,6,6-trimethyl-4-oxo-4,5,6,7-tetrahydro-1H-indol-1-yl)benzamide], the IC50 is less than 500 nM.
Take `Cc1cn(-c2ccc(C(N)=O)c(Nc3ccnc(OCCN(C)C)c3)c2)c2c1C(=O)CC(C)(C)C2` [Compound 108, 2-({2-[2-(dimethylamino)ethoxy]pyridin-4-yl}amino)-4-(3,6,6-trimethyl-4-oxo-4,5,6,7-tetrahydro-1H-indol-1-yl)benzamide]: the IC50 is less than 500 nM.
The figure for `Cc1nn(-c2ccc(C(N)=O)c(NC3CCN(C(=O)CN)CC3)c2)c2c1C(=O)CC(C)(C)C2` [Compound 129, 2-[(1-glycylpiperidin-4-yl)amino]-4-(3,6,6-trimethyl-4-oxo-4,5,6,7-tetrahydro-1H-indazol-1-yl)benzamide] is 500 to 5000 nM; for `Cc1cn(-c2ccc(C(N)=O)c(NCCNC(=O)CO)c2)c2c1C(=O)CC(C)(C)C2` [Compound 112, 2-{[2-(glycoloylamino)ethyl]amino}-4-(3,6,6-trimethyl-4-oxo-4,5,6,7-tetrahydro-1H-indol-1-yl)benzamide] it is 5000 to 50000 nM; for `CC1(C)CC(=O)c2c(C(F)(F)F)nn(-c3ccc(C(N)=O)c(NC4CCSCC4)c3)c2C1` [Compound 31, 4-(6,6-Dimethyl-4-oxo-3-trifluoromethyl-4,5,6,7-tetrahydro-indazol-1-yl)-2-(tetrahydro-thiopyran-4-ylamino)-benzamide] it is less than 500 nM.
Consider `COc1ccc(Nc2cc(-n3c(C)cc4c3CC(C)(C)CC4=O)ccc2C(N)=O)cc1OCCCN(C)C` [Compound 93, 2-({3-[3-(dimethylamino)propoxy]-4-methoxyphenyl}amino)-4-(2,6,6-trimethyl-4-oxo-4,5,6,7-tetrahydro-1H-indol-1-yl)benzamide], for which the IC50 lay within 500 to 5000 nM.
On to `COc1cc(Nc2cc(-n3nc(C)c4c3CC(C)(C)CC4=O)ccc2C(N)=O)cc(OC)c1OC` [Compound 19, 4-(6,6-Dimethyl-4-oxo-3-methyl-4,5,6,7-tetrahydro-indazol-1-yl)-2-(3,4,5-trimethoxyanilino)-benzamide], for which the IC50 is less than 500 nM.
Regarding `Cc1nn(-c2ccc(C(N)=O)c(NCC3CC3)c2)c2c1C(=O)CC(C)(C)C2` [Compound 100, 2-[(cyclopropylmethyl)amino]-4-(3,6,6-trimethyl-4-oxo-4,5,6,7-tetrahydro-1H-indazol-1-yl)benzamide], the IC50 is less than 500 nM.
Turning to `COc1cc(Nc2cc(-n3c(C)c(Cl)c4c3CC(C)(C)CC4=O)ccc2C(N)=O)cc(OC)c1OC` [Compound 81, 4-(3-chloro-2,6,6-trimethyl-4-oxo-4,5,6,7-tetrahydro-1H-indol-1-yl)-2-[(3,4,5-trimethoxyphenyl)amino]benzamide], the IC50 was less than 500 nM.
The figure for `Cc1nn(-c2ccc(C(N)=O)c(NC3CCN(C(=O)CCN4CCOCC4)CC3)c2)c2c1C(=O)CC(C)(C)C2` [Compound 127, 2-{[1-(3-morpholin-4-ylpropanoyl)piperidin-4-yl]amino}-4-(3,6,6-trimethyl-4-oxo-4,5,6,7-tetrahydro-1H-indazol-1-yl)benzamide] is less than 500 nM; for `COc1ccc(Nc2cc(-n3nc(C)c4c3CC(C)(C)CC4=O)ccc2C(N)=O)cc1` [Compound 114, 2-[(4-methoxyphenyl)amino]-4-(3,6,6-trimethyl-4-oxo-4,5,6,7-tetrahydro-1H-indazol-1-yl)benzamide] it is less than 500 nM; for `CC1(C)CC(=O)c2c(C(F)F)nn(-c3ccc(C(N)=O)c(NC4CC=CC4)c3)c2C1` [Compound 116, 2-(cyclopent-3-en-1-ylamino)-4-[3-(difluoromethyl)-6,6-dimethyl-4-oxo-4,5,6,7-tetrahydro-1H-indazol-1-yl]benzamide] it is less than 500 nM.
As to `Cc1cc2c(n1-c1ccc(C(N)=O)c(Nc3ccc(O)cc3)c1)CC(C)(C)CC2=O` [Compound 82, 2-[(4-hydroxyphenyl)amino]-4-(2,6,6-trimethyl-4-oxo-4,5,6,7-tetrahydro-1H-indol-1-yl)benzamide], the IC50 fell in the range of 500 to 5000 nM.
For the molecule `CC1(C)CC(=O)c2c(C(F)(F)F)nn(-c3ccc(C(N)=O)c(NC4CCN(S(C)(=O)=O)CC4)c3)c2C1` [Compound 124, 4-[6,6-dimethyl-4-oxo-3-(trifluoromethyl)-4,5,6,7-tetrahydro-1H-indazol-1-yl]-2-{[1-(methylsulfonyl)piperidin-4-yl]amino}benzamide], the IC50 is less than 500 nM.
As to `Cc1nn(-c2ccc(C(N)=O)c(N[C@H](C)c3ccccc3)c2)c2c1C(=O)CC(C)(C)C2` [Compound 106, 2-{[(1R)-1-phenylethyl]amino}-4-(3,6,6-trimethyl-4-oxo-4,5,6,7-tetrahydro-1H-indazol-1-yl)benzamide], the IC50 was in the range of 500 to 5000 nM.
Take `Cc1nn(-c2ccc(C(N)=O)c(Nc3cccc([S+](C)[O-])c3)c2)c2c1C(=O)CC(C)(C)C2` (centres unmarked) [Compound 123, 2-{[3-(methylsulfinyl)phenyl]amino}-4-(3,6,6-trimethyl-4-oxo-4,5,6,7-tetrahydro-1H-indazol-1-yl)benzamide]: the IC50 is 500 to 5000 nM.
For the molecule `Cc1cc2c(n1-c1ccc(C(N)=O)c(Nc3ccccc3)c1)CCCC2=O` [Compound 74, 2-anilino-4-(2-methyl-4-oxo-4,5,6,7-tetrahydro-1H-indol-1-yl)benzamide], the IC50 is 5000 to 50000 nM.
In the case of `C#Cc1cccc(Nc2cc(-n3c(C)cc4c3CC(C)(C)CC4=O)ccc2C(N)=O)c1` [Compound 72, 2-[(3-ethynylphenyl)amino]-4-(2,6,6-trimethyl-4-oxo-4,5,6,7-tetrahydro-1H-indol-1-yl)benzamide], the IC50 is 500 to 5000 nM.
With `COCC(=O)Nc1cc(-n2cc(C)c3c2CC(C)(C)CC3=O)ccc1C(N)=O` [Compound 101, 2-[(methoxyacetyl)amino]-4-(3,6,6-trimethyl-4-oxo-4,5,6,7-tetrahydro-1H-indol-1-yl)benzamide], the IC50 was 500 to 5000 nM.
The figure for `COc1ccc(Nc2cc(-n3cc(C)c4c3CC(C)(C)CC4=O)ccc2C(N)=O)cc1OCCN(C)C` [Compound 104, 2-({3-[2-(dimethylamino)ethoxy]-4-methoxyphenyl}amino)-4-(3,6,6-trimethyl-4-oxo-4,5,6,7-tetrahydro-1H-indol-1-yl)benzamide] is less than 500 nM; for `CN(C)S(=O)(=O)CCNc1cc(-n2nc(C(F)(F)F)c3c2CC(C)(C)CC3=O)ccc1C(N)=O` [Compound 136, 2-({2-[(dimethylamino)sulfonyl]ethyl}amino)-4-[6,6-dimethyl-4-oxo-3-(trifluoromethyl)-4,5,6,7-tetrahydro-1H-indazol-1-yl]benzamide] it is 500 to 5000 nM.
